One assay deals with Pseudomonas aeruginosa. Put plainly: Checkerboard synergy assay with LpxCi-4. In kind it is cell-based. As to conditions: combination with LpxCi-4 (3936), Pseudomonas aeruginosa (ATCC27853 in text). An excerpt:
(§1) One classic method for assessing synergy, referred to as the checkerboard assay, is used to predict the efficacy of antibacterial agents, and is described by Scribner et. al., (Antimicrobial Agents and Chemotherapy 21(6):939-943 (1982)) and in Goodman & Gilman (The Pharmacological Basis of Therapeutics, Sixth Edition, pp. 1097-1098 (1980)). The checkerboard assay involves serial two-fold dilutions of the antibiotics individually and in combination in broth, which is then inoculated with the microorganism to be tested. After incubation, the minimum inhibitory concentration (MIC) of each drug used individually and in combination is determined (N.B., the MIC is the lowest concentration of the drug that inhibits growth in the medium). Synergism is indicated by a decrease in the MIC of each drug when used in combination. Antagonism is indicated by an increase in the MIC of either or both drugs when used in combination. Alternate methods of assessing synergy are reviewed in Greco, et al., Pharmacological Reviews 47(2):[…] (1995), incorporated herein by reference in its entirety.
(§2) Partial or full inhibition of LpxC should compromise the outer membrane and thus allow these synergizing agents to enter the cells and exert an antibacterial effect at concentrations where cells untreated with an LpxC inhibitor are unaffected. As a first step, checkerboard synergy assays for a variety of antibacterial agents were perform with several LpxC inhibitors, on several species of gram negative bacteria.
(§3) Bacterial isolates were cultivated from −70° C. frozen stocks of the indicated strains by overnight passages at 35° C. in ambient air on Mueller-Hinton agar (Beckton Dickinson, Franklin Lakes, N.J.). Minimum Inhibitory Concentrations (MICs) were determined by the broth microdilution method in accordance with the Clinical and Laboratory Standards Institute (CLSI) guidelines. In brief, organism suspensions were adjusted to a 0.5 McFarland standard to yield a final inoculum between 3×10^5 and 7×10^5 colony-forming units (CFU)/mL. Drug dilutions and inocula were made in sterile, cation adjusted Mueller-Hinton Broth (Beckton Dickinson). An inoculum volume of 100 μL was added to wells containing 100 μL of broth with 2-fold serial dilutions of drug. All inoculated microdilution trays were incubated in ambient air at 35° C. for 18-24 hours. Following incubation, the lowest concentration of the drug that prevented visible growth (OD600 nm <0.05) was recorded as the MIC.
(§4) Standard checkerboard assays were performed with a combination of the indicated agents and LpxCi-4. Table 2 provides the FICI calculated according to standard techniques.

For a further assay, the system named is Klebsiella pneumoniae. Put plainly: Checkerboard synergy assay with LpxCi-4. It is filed as cell-based. The settings on record: combination with LpxCi-4.
Source text: as §1, §2, §3, §4

For a further assay, the system named is Yersinia enterocolitica. Put plainly: Checkerboard synergy assay with LpxCi-4. In kind it is cell-based. The settings on record: combination with LpxCi-4.
Source text: as §1, §2, §3, §4

Another assay deals with E. coli ATCC25922. Put plainly: MIC by broth microdilution, wild type strain ATCC25922. It is filed as cell-based. The protocol:
as §3

For assay [1], the system named is P. aeruginosa (ATCC27853). As to conditions: for ΔLogCFU vs 24 hr / Log CFU Mean: 24 hr; for Log CFU Mean: n=5. An excerpt:
(§5) The model was run essentially as described by Craig and others (see Gudmundsson et al., “Murine Thigh Infection Model,” Handbook of Animal Models of Infection, M. A. Sande and O. Zak, Eds.; London: Academic Press, 1999, pp 137-144). Briefly, mice were rendered neutropenic prior to infection with 2 doses of cyclophosphamide, and then infected intramuscularly in the thigh with inocula of 10^3-10^5 CFU of either K. pneumo. (ATCC43816) or P. aeruginosa (ATCC27853). Antibiotics or vehicle alone as a negative control were administered twice at 2 hrs and 14 hrs post-infection. The animals were kept neutropenic for the duration of the experiment in order to minimize the effect of white blood cells on the infection such that the microbiological readout measures the in vivo interaction of drugs and bacteria. At 24 hrs post-infection, thighs were harvested, homogenized, and plated to measure the number of CFUs surviving per thigh. Thighs from a subset of animals were also harvested 2 hrs post-infection to record the CFUs present just prior to the first antibiotic treatment (pre-treatment).
This table focuses on the sensitive part of the LpxCi-4 dose response curve (30 mg/kg) by examining the mean log CFU at 0 or 24 hours, as well as the log change in CFU at 24 hours relative to zero hours (“ΔLogCFU vs […]”). Data is given for animals treated with vehicle, LpxCi-4 at 30 mg/kg, a second agent alone at the indicated doses or the combination of LpxCi-4 at 30 mg/kg plus the second agent at the indicated dose. The standard errors for each measurement are also given (n=5 animals/group). By comparing the observed drop in CFU of the combination with the sum of the drop in CFU associated with each of the two agents given separately, one can determine whether the combination is, in fact, synergistic in vivo.

For another assay, the system named is envA1 (D22) E. coli. Put plainly: MIC by broth microdilution, isogenic envA1 mutant strain. In kind it is cell-based. As to conditions: for MIC: Strain envA1 (D21); for Fold decrease in MIC (envA+/envA1): envA+ vs envA1 E. coli. The protocol: as §3
For orientation: In broth dilution the organism is exposed to a series of concentrations in liquid medium.

A further assay concerns envA+ (D21) E. coli. Put plainly: MIC by broth microdilution, isogenic envA+ strain. It is filed as cell-based. On the procedure:
as §3

The next assay deals with gram negative bacteria. Put plainly: Checkerboard synergy score at fractions of the antibacterial agent's MIC, with LpxCi-1, -2, -3. It is filed as cell-based. Also noted: scale not given here. The protocol: as §2, §3
For a further assay, the system named is K. pneumo. (ATCC43816). Put plainly: Neutropenic thigh in vivo efficacy model (mice). More on the design: species or system Klebsiella pneumoniae. The settings on record: K. pneumo. (ATCC43816); summary.
Source text: as §5

The mark [2] stands for this setting: second block of Table 5, mg/kg/day b.i.d.: 3936 30, Eryth. 60, Dapto. 3, Oxacil. 100.
The mark [3] stands for this setting: first block of Table 5, mg/kg/day b.i.d.: 3936 30, Rif. 30, Azith. 50.

As a reminder, the MIC is the smallest concentration in the dilution series that meets the test's criterion for growth inhibition.

Values after ≈ are worked out from the molar mass of the structure shown. “Also recorded” adds a separate entry of the source. Where two headings read alike, the source gives them in different places.

Turning to `CO/N=C(\C(=O)N[C@@H]1C(=O)N2C(C(=O)O)=C(COC(C)=O)CS[C@H]12)c1csc(N)n1` [Cefotaxime, cefotaxime], the FICI index result was “≦1.0” in the assay with Pseudomonas aeruginosa, 0.5 with Klebsiella pneumoniae and “≦0.5” in the assay with Yersinia enterocolitica.
In the same order, the values of `Nc1nc(/C(=N/O)C(=O)N[C@@H]2C(=O)N3C(C(=O)O)=C(/C=C4\CCN([C@@H]5CCNC5)C4=O)CS[C@H]23)ns1` [Ceftobioprole] are 0.5, 0.63 and 0.5.
The corresponding values for `CCC[C@@H]1C[C@@H](C(=O)N[C@@H]([C@H]2O[C@H](SC)[C@H](O)[C@@H](O)[C@H]2O)[C@H](C)Cl)N(C)C1` [Clindamycin, clindamycin] are “no effect”, “≦0.5” and 0.13.
Consider `CCCCCCCCCC(=O)N[C@@H](Cc1c[nH]c2ccccc12)C(=O)N[C@H](CC(N)=O)C(=O)N[C@@H](CC(=O)O)C(=O)N[C@@H]1C(=O)NCC(=O)N[C@@H](CCCN)C(=O)N[C@@H](CC(=O)O)C(=O)N[C@H](C)C(=O)N[C@@H](CC(=O)O)C(=O)NCC(=O)N[C@H](CO)C(=O)N[C@@H]([C@H](C)CC(=O)O)C(=O)N[C@@H](CC(=O)c2ccccc2N)C(=O)O[C@@H]1C` [Daptomycin, daptomycin], for which the FICI index entry in the assay on Pseudomonas aeruginosa and in the assay on Klebsiella pneumoniae was “no measurable synergy; also recorded: no effect” in each case. For the same compound, the MIC in the assay on E. coli ATCC25922 is > 256 µg/mL; with envA1 (D22) E. coli, 32 µg/mL (≈ 19.7 µM); against envA+ (D21) E. coli, 256 µg/mL (≈ 158 µM). For the same compound, the “ΔLogCFU vs 24 hr” value in assay [1] (setting [2]) is on record as −1.04. Moreover, the “Log CFU Mean” value in assay [1] (setting [2]) worked out at 6.6. Besides, the “Fold decrease in MIC (envA+/envA1)” value with envA1 (D22) E. coli is given as 8. The “MIC shift due to modification of envA” value in the assay with envA1 (D22) E. coli (isogenic envA1 (D22) vs envA+ (D21) E. coli) is given as 8 ×.
Consider `C[C@H]1COc2c(N3CCN(C)CC3)c(F)cc3c(=O)c(C(=O)O)cn1c23` [Levofloxacin], for which the FICI index entry is given as “no effect” with Pseudomonas aeruginosa, 0.5 in the assay with Klebsiella pneumoniae and 0.63 in the assay with Yersinia enterocolitica.
With `CC(=O)NC[C@H]1CN(c2ccc(N3CCOCC3)c(F)c2)C(=O)O1` [Linezolid, linezolid], the FICI index entry was “no effect” in the assay on Pseudomonas aeruginosa and “≦0.5” in the assay with Klebsiella pneumoniae. The “Synergy Score” value in the assay on gram negative bacteria (with LpxCi-1, antibacterial agent at 1/16 MIC) is on record as 0.46; in the assay with gram negative bacteria (with LpxCi-1, antibacterial agent at 1/64 MIC), 1.03; in the assay on gram negative bacteria (with LpxCi-1, antibacterial agent at ¼ MIC), 0.54; with gram negative bacteria (with LpxCi-2, antibacterial agent at ¼ MIC) it was 1.25; with gram negative bacteria (with LpxCi-3, antibacterial agent at 1/16 MIC), 1.06; with gram negative bacteria (with LpxCi-3, antibacterial agent at 1/64 MIC), 1.02. The “Synergy Score” value with gram negative bacteria (with LpxCi-3, antibacterial agent at ¼ MIC) is listed as 0.58.
In the case of `CO[C@H]1/C=C/O[C@@]2(C)Oc3c(C)c(O)c4c(O)c(c(/C=N/N5CCN(C)CC5)c(O)c4c3C2=O)NC(=O)/C(C)=C\C=C\[C@H](C)[C@H](O)[C@@H](C)[C@@H](O)[C@@H](C)[C@H](OC(C)=O)[C@@H]1C` [Rifampin, rifampin], the FICI index result is “≦1.0” in the assay on Pseudomonas aeruginosa, < 1.0 in the assay with Pseudomonas aeruginosa (listed as rifampin), “≦0.08” with Klebsiella pneumoniae and 0.19 with Yersinia enterocolitica. Further, the MIC in the assay on E. coli ATCC25922 is 16 µg/mL (≈ 19.4 µM); in the assay on envA1 (D22) E. coli, 0.25 µg/mL (≈ 0.304 µM); in the assay on envA+ (D21) E. coli, 16 µg/mL (≈ 19.4 µM). Besides, the “ΔLogCFU vs 24 hr” value in assay [1] (setting [3]) is listed as −0.28. Moreover, the “Log CFU Mean” value in [1] (setting [3]) was 7.46. In assay [1] (P. aeruginosa (ATCC27853), summary), the “in vivo synergy with LpxC inhibitors” value is “surprising in vivo synergy”. For the same compound, the “drop in CFU relative to vehicle” value in assay [1] (each agent at 30 mg/kg) is recorded as 0.28 log. Further, the “in vivo synergy with multiple LpxC inhibitors” value in the assay with K. pneumo. (ATCC43816) is reported as “surprising in vivo synergy”.
gentamicin: the FICI index in the assay on Pseudomonas aeruginosa was 0.38; in the assay with Klebsiella pneumoniae it was 0.75; with Yersinia enterocolitica, 0.5.
Take teicoplanin: the values for the FICI index result with Pseudomonas aeruginosa, in the assay with Klebsiella pneumoniae and with Yersinia enterocolitica were “no effect”, “≦0.37” and “≦0.25”, respectively. The MIC with E. coli ATCC25922 was > 256 µg/mL; in the assay with envA1 (D22) E. coli, 32 µg/mL; with envA+ (D21) E. coli, > 256 µg/mL. In the assay with envA1 (D22) E. coli, the “Fold decrease in MIC (envA+/envA1)” value was “≧8”.

Source of the values: patent US20120283175A1, “ANTIBACTERIAL COMPOSITIONS” (Achaogen, Inc., priority 2009, published 2012).
